The subject of this assay is E. coli 31. Put plainly: In vitro antibacterial activity, two-fold agar-plate dilution method (MIC). The conditions noted are these: Escherichia coli, 10^6 viable cells per ml, heart infusion agar, 37° C., 20 hours, read-out: MIC (minimal inhibitory concentration). Format: cell-based. The procedure:
Now in order to show the utility of the object compound (I), the test data on MIC (minimal inhibitory concentration) of a representative compound of the compound (I) are shown in the following.
In vitro antibacterial activity was determined by the two-fold agar-plate dilution method as described below.
One loopful of an overnight culture of each test strain in Trypticase-soy broth (10^6 viable cells per ml) was streaked on heart infusion agar (HI-agar) containing graded concentrations of representative test compound, and the minimal inhibitory concentration (MIC) was expressed in terms of μg/ml after incubation at 37° C. for 20 hours.

The results in this text go back to patent publication US5215982A, “Cephem compounds” (Fujisawa Pharmaceutical Co., Ltd., priority 1989, dated 1993).

`CON=C(C(=O)NC1C(=O)N2C(C(=O)[O-])=C(C[n+]3ccc4[nH]ccn43)CSC12)c1nsc(N)n1` (stereo not drawn) [Test Compound (1), 7β-[2-(5-Amino-1,2,4-thiadiazol-3-yl)-2-methoxyiminoacetamido]-3-[5-(1H-imidazo[1,2-b]pyrazolio)]methyl-3-cephem-4-carboxylate (syn isomer)]: the MIC is no more than 0.025 µg/mL.
